The AUC(0-t) is the area under the concentration-time curve up to a stated or last time point. A low value points to less exposure. Usually half-life stands for the time in which the quantity being followed falls by half. Read a low half-life as fast loss. Usually Cmax stands for the maximum level reached in the sampled fluid or tissue. A word on the Tmax: it is the time from dosing to the highest level. For orientation: EC50 means the concentration needed to bring the measured effect to its halfway point. Higher therefore signals a need for much substance.

*1 amine or outer side, *2 acyl side, *3 side chain or, on linkers, in order; H or OH if unused. Where a SMILES comes first, the peptide text is derived from it. Side-chain parts run from the residue outwards. [ ]: non-standard residue; d: D form. The star is where a group is joined. C18 diacid = O=C(O)CCCCCCCCCCCCCCCCC(=O)*; γGlu = O=C(O)[C@H](CCC(=O)[*:2])N[*:1]; NMeI = CC[C@H](C)[C@H](NC)C(=O)O; AEEA = NCCOCCOCC(=O)O Some results are limits rather than exact numbers.

Here are results for 3 compounds from US20260001928A1 (CORTERIA PHARMACEUTICALS, priority 2022, published 2026).

Data set [1] can be described thus: Pharmacokinetics in male Sprague Dawley rats after subcutaneous administration. The data set is classed as in vivo. The conditions noted are these: plasma, rat.
The next data set deals with T1, human CRF2a receptor (Homo sapiens, UniProt Q13324).
T1 construct: expressed in transfected cells; host or cells: TeloHEAC cells
T1 sequence (Q13324 1-411): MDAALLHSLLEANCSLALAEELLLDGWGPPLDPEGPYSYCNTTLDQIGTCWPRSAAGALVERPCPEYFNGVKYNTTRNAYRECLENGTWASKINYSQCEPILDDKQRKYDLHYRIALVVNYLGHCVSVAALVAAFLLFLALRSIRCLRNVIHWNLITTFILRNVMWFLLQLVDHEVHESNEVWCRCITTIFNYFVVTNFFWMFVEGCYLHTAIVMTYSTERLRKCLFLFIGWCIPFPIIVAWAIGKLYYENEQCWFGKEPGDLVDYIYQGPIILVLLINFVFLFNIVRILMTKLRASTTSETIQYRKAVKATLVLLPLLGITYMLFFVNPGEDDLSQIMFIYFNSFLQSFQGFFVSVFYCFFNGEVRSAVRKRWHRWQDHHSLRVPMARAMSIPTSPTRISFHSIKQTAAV
In words: Activity at human CRF2a receptor, cAMP functional assay in TeloHEAC cells. Format: cell-based. The conditions noted are these: TeloHEAC cells stably expressing human CRF2a receptor, relative to urocortin 2 (100 nM = 100%). The gist of the method: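 TeloHEAC cells stably expressing human CRF2a (10000 cells/well) were treated with 16-point 1:2 compound dilutions in HBSS/20 mM HEPES with IBMX for 30 min at 37° C. cAMP was read by HTRF (665/620 nm ratio). EC50 was the concentration giving 50% activation, with 100 nM urocortin 2 set as 100%.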

The next data set concerns the target T2, CFR1R receptor (Homo sapiens, UniProt P34998).
T2 construct: host or cells: CHO-K1 (clone 2)
T2 sequence (P34998 24-415): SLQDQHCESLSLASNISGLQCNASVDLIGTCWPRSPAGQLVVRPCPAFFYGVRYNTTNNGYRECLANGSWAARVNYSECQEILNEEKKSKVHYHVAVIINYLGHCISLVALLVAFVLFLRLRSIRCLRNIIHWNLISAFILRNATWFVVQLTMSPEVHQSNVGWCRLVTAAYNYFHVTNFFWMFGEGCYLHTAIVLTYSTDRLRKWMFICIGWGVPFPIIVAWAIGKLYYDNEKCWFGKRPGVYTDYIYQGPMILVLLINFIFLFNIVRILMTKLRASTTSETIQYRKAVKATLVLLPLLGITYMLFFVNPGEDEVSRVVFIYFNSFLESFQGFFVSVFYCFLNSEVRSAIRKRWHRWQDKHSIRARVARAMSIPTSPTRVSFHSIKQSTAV
In words: Activity at anti-target CFR1R receptor, cAMP assay in CRF1R-overexpression CHO-K1 cells. The data set is classed as cell-based. To be noted: 100% = Sauvagine at 100 nM; for EC50: cAMP. The gist of the method: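 Clone 2 cells were cultured in F12 (Hams)/10% FBS/400 μg/ml G418 at 37° C./5% CO2, frozen in medium with 10% DMSO, and thawed vials used. The protocol followed the TeloHAEC procedure, with 4000 cells/well final and Sauvagine at 100 nM defining 100% activation.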
A general note: cAMP levels reflect the balance of adenylyl cyclase and phosphodiesterase activity.

A short description of data set [2]: Chemical stability in buffer (pH 7.4 / pH 4.5), % purity loss. Format: physicochemical. To be noted: 40° C. vs 5° C., 14 or 28 days; for Buffer stability pH 4.5 % purity loss: 100 mM acetate buffer pH 4.5; for Buffer stability pH 7.4 % purity loss: 100 mM phosphate buffer pH 7.4. The gist of the method:
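Compounds dissolved at 10 mg/mL target in 100 mM phosphate (pH 7.4) or 100 mM acetate (pH 4.5) buffer for 1 h at room temperature, then centrifuged. Diluted supernatant stored at 5 °C or 40 °C for 14 or 28 days; % purity loss by LC-UV.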

A further data set deals with Sprague Dawley rats. Briefly: Effect on systolic blood pressure, telemetry in Sprague Dawley rats. Format: in vivo, rat. The conditions noted are these: 0.1 mg/kg SC; for Systolic blood pressure (Mean) % change from baseline, 8 h / Systolic blood pressure (Mean) % change from baseline, 12 h / Systolic blood pressure (Mean) % change from baseline, 24 h: n=2; for Duration of action: last time point with an effect on BP still observed. The gist of the method: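 Sprague Dawley rats with abdominal-aorta telemetry catheters, recovered ≥10 days, received 0.1 mg/kg SC of compound or vehicle. Systolic pressure recorded 1 h pre-dose as baseline, then continuously up to 48 hours, expressed as % change from baseline; duration of action is last time point with a BP effect (n=2).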

In data set [1] (IV, 0.1 mg/kg), `CC[C@H](C)[C@H](N)C(=O)N[C@H](C(=O)N[C@@H](CC(C)C)C(=O)N[C@@H](CO)C(=O)N[C@@H](CC(C)C)C(=O)N[C@@H](CC(=O)O)C(=O)N[C@H](C(=O)N1CCC[C@H]1C(=O)N[C@H](C(=O)N[C@@H](CCCCN)C(=O)N[C@@H](CC(C)C)C(=O)N[C@@H](CCCCNC(=O)COCCOCCNC(=O)COCCOCCNC(=O)CC[C@H](NC(=O)CCCCCCCCCCCCCCCCC(=O)O)C(=O)O)C(=O)N[C@@H](CCCCN)C(=O)N[C@H](C(=O)N[C@@H](CC(C)C)C(=O)N[C@@H](CC(C)C)C(=O)N[C@@H](CCC(=O)O)C(=O)N[C@@H](CCC(N)=O)C(=O)N[C@@H](CCC(=O)O)C(=O)N[C@@H](CCCCN)C(=O)N[C@@H](CCC(N)=O)C(=O)N[C@@H](CCCCN)C(=O)N[C@@H](CCCCN)C(=O)N[C@@H](CCC(N)=O)C(=O)N[C@@H](CCCNC(=N)N)C(=O)N[C@@H](CCC(=O)O)C(=O)N[C@@H](CCC(N)=O)C(=O)N[C@@H](C)C(=O)N[C@@H](CCC(=O)O)C(=O)N[C@H](C(=O)N[C@@H](CC(N)=O)C(=O)N[C@@H](CCCCN)C(=O)N[C@@H](CCC(N)=O)C(=O)N[C@H](C(=O)N[C@@H](CC(C)C)C(=O)N[C@@H](C)C(=O)N[C@@H](CCC(N)=O)C(=O)N[C@H](C(N)=O)C(C)C)[C@@H](C)CC)[C@@H](C)O)[C@@H](C)CC)[C@@H](C)CC)C(C)C)C(C)C` [149 (Comp Y)] (H-IVLSLDVPIKLK([AEEA-AEEA-γGlu-C18 diacid])KILLEQEKQKKQREQAETNKQILAQV-NH2) showed an AUC(0-t) of 2760 ng·h/mL and a half-life of 4.3 h. In data set [1] (SC, 1.0 mg/kg), the AUC(0-t) came out at 14500 ng·h/mL, the peak level (Cmax) was 1040 ng/mL, the Tmax is 2 h and the half-life was 4 h.

Take `CC[C@H](C)[C@H](NC(C)=O)C(=O)N[C@H](C(=O)N[C@@H](CC(C)C)C(=O)N[C@@H](CO)C(=O)N[C@@H](CC(C)C)C(=O)N[C@@H](CC(=O)O)C(=O)N[C@@H](C(=O)N1CCC[C@H]1C(=O)N[C@H](C(=O)N[C@@H](CCCCN)C(=O)N[C@@H](CC(C)C)C(=O)N[C@@H](CCCCNC(=O)COCCOCCNC(=O)COCCOCCNC(=O)CC[C@H](NC(=O)CCCCCCCCCCCCCCCCC(=O)O)C(=O)O)C(=O)N[C@@H](CCCCN)C(=O)N[C@H](C(=O)N[C@@H](CC(C)C)C(=O)N[C@@H](CC(C)C)C(=O)N[C@@H](CCC(=O)O)C(=O)N[C@@H](CCC(N)=O)C(=O)N[C@@H](CCC(=O)O)C(=O)N[C@@H](CCCCN)C(=O)N[C@@H](CCC(N)=O)C(=O)N[C@@H](CCCCN)C(=O)N[C@@H](CCCCN)C(=O)N[C@@H](CCC(N)=O)C(=O)N[C@@H](CCCNC(=N)N)C(=O)N[C@@H](CCC(=O)O)C(=O)N[C@@H](CCC(N)=O)C(=O)N[C@@H](C)C(=O)N[C@@H](CCC(=O)O)C(=O)N[C@H](C(=O)N[C@@H](CC(N)=O)C(=O)N[C@@H](C)C(=O)N[C@@H](CCC(N)=O)C(=O)N[C@H](C(=O)N[C@@H](CC(C)C)C(=O)N[C@@H](C)C(=O)N[C@@H](CCC(N)=O)C(=O)N[C@H](C(N)=O)C(C)C)[C@@H](C)CC)[C@@H](C)O)[C@@H](C)CC)[C@@H](C)CC)C(C)C)C(C)C` [compound 100] (Ac-IVLSLD[dV]PIKLK([AEEA-AEEA-γGlu-C18 diacid])KILLEQEKQKKQREQAETNAQILAQV-NH2): a half-maximal response on human CRF2a receptor (EC50) required 0.41 nM. Moreover, on CFR1R receptor, the “Emax (% I)” value was determined as 8 % I and the EC50 was > 250 nM. In data set [2], the “Buffer stability pH 4.5 % purity loss” value came out at 0% and the “Buffer stability pH 7.4 % purity loss” value is recorded as 13.2%. In addition, in the data set on Sprague Dawley rats, the “Systolic blood pressure (Mean) % change from baseline, 8 h” value is −22%; the “Systolic blood pressure (Mean) % change from baseline, 12 h” value is given as −12%; the “Systolic blood pressure (Mean) % change from baseline, 24 h” value was −9%; the Duration of action is reported as >24 h.

Take `CC[C@H](C)[C@H](NC)C(=O)N[C@H](C(=O)N[C@@H](CC(C)C)C(=O)N[C@@H](CO)C(=O)N[C@@H](CC(C)C)C(=O)N[C@@H](CC(=O)O)C(=O)N[C@@H](C(=O)N1CCC[C@H]1C(=O)N[C@H](C(=O)N[C@@H](CCCCN)C(=O)N[C@@H](CC(C)C)C(=O)N[C@@H](CCCCNC(=O)COCCOCCNC(=O)COCCOCCNC(=O)CC[C@H](NC(=O)CCCCCCCCCCCCCCCCC(=O)O)C(=O)O)C(=O)N[C@@H](CCCCN)C(=O)N[C@H](C(=O)N[C@@H](CC(C)C)C(=O)N[C@@H](CC(C)C)C(=O)N[C@@H](CCC(=O)O)C(=O)N[C@@H](CCC(N)=O)C(=O)N[C@@H](CCC(=O)O)C(=O)N[C@@H](CCCCN)C(=O)N[C@@H](CCC(N)=O)C(=O)N[C@@H](CCCCN)C(=O)N[C@@H](CCCCN)C(=O)N[C@@H](CCC(N)=O)C(=O)N[C@@H](CCCNC(=N)N)C(=O)N[C@@H](CCC(=O)O)C(=O)N[C@@H](CCC(N)=O)C(=O)N[C@@H](C)C(=O)N[C@@H](CCC(=O)O)C(=O)N[C@H](C(=O)N[C@@H](CC(N)=O)C(=O)N[C@@H](C)C(=O)N[C@@H](CCC(N)=O)C(=O)N[C@H](C(=O)N[C@@H](CC(C)C)C(=O)N[C@@H](C)C(=O)N[C@@H](CCC(N)=O)C(=O)N[C@H](C(N)=O)C(C)C)[C@@H](C)CC)[C@@H](C)O)[C@@H](C)CC)[C@@H](C)CC)C(C)C)C(C)C` [compound 113] (H-[NMeI]VLSLD[dV]PIKLK([AEEA-AEEA-γGlu-C18 diacid])KILLEQEKQKKQREQAETNAQILAQV-NH2): the EC50 on human CRF2a receptor stood at 0.35 nM. On CFR1R receptor, the “Emax (% I)” value was determined as 6 % I and the EC50 was > 250 nM. In data set [2], the “Buffer stability pH 4.5 % purity loss” value is on record as 0% and the “Buffer stability pH 7.4 % purity loss” value is reported as 14.7%. Further, in the data set on Sprague Dawley rats, the “Systolic blood pressure (Mean) % change from baseline, 8 h” value is reported as −31%; the “Systolic blood pressure (Mean) % change from baseline, 12 h” value was −24%; the “Systolic blood pressure (Mean) % change from baseline, 24 h” value is −7%; the Duration of action was >24 h.
